Data published in publication PMC3997483, “Aminostyrylbenzofuran Directly Reduces Oligomeric Amyloid-β and Reverses Cognitive Deficits in Alzheimer Transgenic Mice” (PLoS ONE, 2014).

What was measured:
[1] = Metabolic stability in liver microsomes; format: in vitro ADME; conditions: dog liver microsomes
[2] = Dissociation constant (pKa), GLpKa titration; format: physicochemical; conditions: aqueous 150 mM NaCl solution
Procedure: Dissociation constant (pKa) and partition coefficient (log P) Dissociation constant (pKa) and partition coefficient (log P) of KMS88009 were measured by a pH-method using GLpKa (Sirius, UK). pKa was measured by titrating KMS88009 solution and calculated from the shape of the titration curve. […] Log P of KMS88009 was calculated by a two-phase acid-base titration in a mixture of water and octanol. Three separate potentiometric titrations of KMS88009 were carried out at 23 ℃ in various octanol-water (0.15 M KCl) mixtures (0.5% to 50% octanol). The initial pH was adjusted to 10.0 with standardized 0.5 M NaOH prior to each titration. Titrations were performed with standardized 0.5 M HCl to pH 1.8. The pKa and log P values were calculated using RefinementPro software (Sirius, UK). Values are expressed as the mean ± SD of 3 independent experiments.

[3] = Stability in PBS buffer (plasma stability study); format: in vitro ADME; conditions: 37 °C
APP/PS1 TG mice [4] = assay: Morris water maze, prophylactic trial; format: in vivo, mouse; conditions: for swimming time % within the target quadrant (probe trial): APP/PS1 TG mice, vehicle TG 23.4%, WT 44.3%; for Latency (hidden platform): TG mice
Procedure: Behavioral tests were performed in the following sequence: Y-maze (day 1), Morris water maze (day 4 to 12) and contextual fear conditioning (day 26 to 27). To reduce stress, contextual fear conditioning was carried out 2 weeks after the Morris water maze task. In the therapeutic trial, APP/PS1 TG mice were treated with KMS88009 (30 mg/kg/day) for 3 months from 9 to 12 months of age. Y-maze tests short-term spatial working memory. Y-maze is a 3-armed (40 L×10 W×12 H cm) horizontal maze in which the arms are symmetrically disposed at 120° angles from each other. Mice were placed at the end of one arm and allowed to move freely through the maze during a 5-min session. Arm entry was considered completed when the hind paws of the mouse were completely placed in the arm. Alternation was defined as successive entries into the 3 arms on overlapping triplet sets. The series of arm entries was recorded via video recorders. The percentage of alternation was defined according to the following equation: % alternation = [(number of alternations)/(total arm entries - 2)] ×100. Mice performing fewer than 7 alternations in 5 min were excluded from the subsequent analysis to accurately determine alternation scores. Morris water maze was used to measure spatial learning and memory. A stainless pool apparatus with a diameter of 120 cm was used. A clear escape platform (circle, 12×12 cm) was located 1.0 cm below (hidden) the water surface containing white nontoxic paint. The temperature of water was kept constant throughout the experiment (21±1°C). The visual cues, for mice to recognize the environment and direction, are placed on the walls around the pool. The training was consisted of 8 consecutive days of testing with 4 trials per day. When a mouse was located on the escape platform, it was permitted to remain on the platform for 15 sec. […] Then the subject was returned to its home cage and allowed to dry up after each trial. The platform location was kept constant and the starting position was varied. Each mouse was placed in the water with their nose pointing toward the wall at one of the starting points in a random manner. During each trial session, the time taken to find the hidden platform (latency) was recorded using a video camera-based Ethovision System (Nodulus, Nertherlands). On the 9th day, each mouse was tested on a probe trial. The platform was removed from pool and the mice were allowed to swim for 60 sec to search. Swimming time was recorded during mice were in the pool quadrant where the platform had been previously located. Mice, which float or jump from platform, were eliminated from the experiment since these responses may be incompatible with the behaviors needed to locate and learn the platform position. In addition, animals with difficulty in swimming were also excluded from this study. Fear conditioning task was measured to test the ability to learn and remember an association between an aversive experience and environmental cues. Contextual fear conditioning evaluation was performed using a fear-conditioning chamber (Courlbourn, USA) equipped with a computer-controlled fear conditioning system (FreActimetrics, USA). On the first day of training, each mouse was placed in the conditioning chamber and left to adjust for 2 min. Fear conditioning test was performed with conditional stimulus (CS) of sound (75 dB) for 20 sec followed by unconditional stimulus (US) of electric foot-shock (0.5 mA) for the last 2 sec in CS. After 1 min, the subject was returned to its home cage. After 24 hr, retention test was performed. […] Freezing response was measured without CS or US. Freezing behavior was defined as the complete absence of any movement except for respiration and heartbeat. Animals with no response to the foot-shock during training were excluded from the analysis. Data analyses including recordings of all behavioral responses were performed by keeping research colleagues blind.

APP/PS1 TG mice [5] = assay: Contextual fear conditioning, therapeutic trial; format: in vivo, mouse; conditions: PO 30 mg/kg/day, 3 months, TG 20.0%
Procedure: Behavioral tests were performed in the following sequence: Y-maze (day 1), Morris water maze (day 4 to 12) and contextual fear conditioning (day 26 to 27). To reduce stress, contextual fear conditioning was carried out 2 weeks after the Morris water maze task. In the therapeutic trial, APP/PS1 TG mice were treated with KMS88009 (30 mg/kg/day) for 3 months from 9 to 12 months of age. Y-maze tests short-term spatial working memory. Y-maze is a 3-armed (40 L×10 W×12 H cm) horizontal maze in which the arms are symmetrically disposed at 120° angles from each other. Mice were placed at the end of one arm and allowed to move freely through the maze during a 5-min session. Arm entry was considered completed when the hind paws of the mouse were completely placed in the arm. Alternation was defined as successive entries into the 3 arms on overlapping triplet sets. The series of arm entries was recorded via video recorders. […] During each trial session, the time taken to find the hidden platform (latency) was recorded using a video camera-based Ethovision System (Nodulus, Nertherlands). […] Swimming time was recorded during mice were in the pool quadrant where the platform had been previously located. […] Fear conditioning task was measured to test the ability to learn and remember an association between an aversive experience and environmental cues. […] Freezing response was measured without CS or US. […]

in vitro = conditions: monkey, liver microsomes

## COc1ccc2cc(C=Cc3ccc(N(C)C)cc3)oc2c1 [KMS88009, 6-methoxy-2-(4-dimethylaminostyryl) benzofuran]
[1]
  half-life at 5 µM: 21.3 ± 0.8 min
[1]; read-out: Remaining % of parent molecule at 60 min.
  remaining at 1 h, 5 µM: 14.8 ± 0.2%
[2]
  pKa: 1.5 ± 0.12
[3]; 0.5 hr
  Parent compound remaining: 99.1%
[3]; 1 hr
  Parent compound remaining: 88.6%
[3]; 2 hr
  Parent compound remaining: 100.0%
[3]; 6 hr
  Parent compound remaining: 100.0%
APP/PS1 TG mice [4]; PO 10 mg/kg/day
  swimming time % within the target quadrant (probe trial): 40.4%
APP/PS1 TG mice [4]; PO 30 mg/kg/day
  swimming time % within the target quadrant (probe trial): 39.7%
APP/PS1 TG mice [4]; PO 100 mg/kg/day
  swimming time % within the target quadrant (probe trial): 37.6%
APP/PS1 TG mice [4]; Day 1, dose group + (10 mg/kg/day)
  Latency (hidden platform): 50.5 ± 2.1 s
APP/PS1 TG mice [4]; Day 1, dose group ++ (30 mg/kg/day)
  Latency (hidden platform): 49.2 ± 2.4 s
APP/PS1 TG mice [4]; Day 1, dose group +++ (100 mg/kg/day)
  Latency (hidden platform): 48.3 ± 3.0 s
APP/PS1 TG mice [4]; Day 2, dose group + (10 mg/kg/day)
  Latency (hidden platform): 39.8 ± 2.7 s
APP/PS1 TG mice [4]; Day 2, dose group ++ (30 mg/kg/day)
  Latency (hidden platform): 38.3 ± 3.0 s
APP/PS1 TG mice [4]; Day 2, dose group +++ (100 mg/kg/day)
  Latency (hidden platform): 37.6 ± 5.2 s
APP/PS1 TG mice [4]; Day 3, dose group + (10 mg/kg/day)
  Latency (hidden platform): 31.1 ± 2.5 s
APP/PS1 TG mice [4]; Day 3, dose group ++ (30 mg/kg/day)
  Latency (hidden platform): 30.6 ± 3.3 s
APP/PS1 TG mice [4]; Day 3, dose group +++ (100 mg/kg/day)
  Latency (hidden platform): 34.3 ± 4.3 s
APP/PS1 TG mice [4]; Day 4, dose group + (10 mg/kg/day)
  Latency (hidden platform): 35.1 ± 2.8 s
APP/PS1 TG mice [4]; Day 4, dose group ++ (30 mg/kg/day)
  Latency (hidden platform): 32.9 ± 3.0 s
APP/PS1 TG mice [4]; Day 4, dose group +++ (100 mg/kg/day)
  Latency (hidden platform): 32.0 ± 4.0 s
APP/PS1 TG mice [4]; Day 5, dose group + (10 mg/kg/day)
  Latency (hidden platform): 41.8 ± 3.2 s
APP/PS1 TG mice [4]; Day 5, dose group ++ (30 mg/kg/day)
  Latency (hidden platform): 36.3 ± 4.2 s
APP/PS1 TG mice [4]; Day 5, dose group +++ (100 mg/kg/day)
  Latency (hidden platform): 29.6 ± 4.1 s
APP/PS1 TG mice [4]; Day 6, dose group + (10 mg/kg/day)
  Latency (hidden platform): 32.9 ± 1.9 s
APP/PS1 TG mice [4]; Day 6, dose group ++ (30 mg/kg/day)
  Latency (hidden platform): 29.3 ± 3.9 s
APP/PS1 TG mice [4]; Day 6, dose group +++ (100 mg/kg/day)
  Latency (hidden platform): 33.4 ± 4.8 s
APP/PS1 TG mice [4]; Day 7, dose group + (10 mg/kg/day)
  Latency (hidden platform): 31.7 ± 2.6 s
APP/PS1 TG mice [4]; Day 7, dose group ++ (30 mg/kg/day)
  Latency (hidden platform): 28.6 ± 3.5 s
APP/PS1 TG mice [4]; Day 7, dose group +++ (100 mg/kg/day)
  Latency (hidden platform): 30.0 ± 2.6 s
APP/PS1 TG mice [4]; Day 8, dose group + (10 mg/kg/day)
  Latency (hidden platform): 26.6 ± 3.0 s
APP/PS1 TG mice [4]; Day 8, dose group ++ (30 mg/kg/day)
  Latency (hidden platform): 25.6 ± 3.0 s
APP/PS1 TG mice [4]; Day 8, dose group +++ (100 mg/kg/day)
  Latency (hidden platform): 27.9 ± 4.6 s
APP/PS1 TG mice [5]
  freezing response (contextual fear conditioning): 48.3%
In vitro
  half-life at 5 µM: 35.2 ± 0.6 min
  remaining at 1 h, 5 µM: 30.9 ± 0.2%
